From patent US11524021B2, “Use of ginsenoside M1 for manufacturing medicament for treating oral cancer” (priority 2018, dated 2022)

How the values were obtained:
Assay type in all cases: cell-based
[1] = system: human oral cancer cells OECM-1; assay: Cell cycle distribution, PI staining by flow cytometry; details: 50 μM, 24 h
Experimental: (§1) Human oral cancer cell line OECM-1 cells were incubated for 24 h with ginsenoside M1 (10˜20 μg/ml), 50 μM cistaplatin (CDDP) or vehicle (0.1% DMSO). (FIG. 3A) The apoptotic DNA breaks was assayed by terminal deoxynucleotidyl transferase dUTP nick end labeling (TUNEL) assay using flow cytometry. (FIG. 3B) The cell cycle distribution was determined by PI staining using flow cytometry. (FIG. 3C) The apoptosis level was measured by PI/Annexin V double staining assay using flow cytometry. (FIG. 3D) The activation levels of caspase-9 and caspase-3 were measured by detecting the degradation of pro-caspase-9 and pro-caspase-3 using Western blotting. […] (One-way ANOVA with Dunnett's multiple comparisons test).
(§2) To gain further insight into the mode of action of ginsenoside M1, three assays targeting hallmarks of apoptosis, namely (1) the apoptotic DNA breaks assayed by terminal deoxynucleotidyl transferase dUTP nick end labeling (TUNEL) assay, (2) the cell cycle assayed by flow cytometry after propidium iodide (PI)-staining nuclei, (3) the PI/Annexin V double staining assay, and (4) caspase activation were performed. Plate 1×10^6 human oral cancer cells OECM-1 per 6-cm dish in 2 ml of culture medium and were grown overnight at 37° C. in a 5% CO2 incubator. The cells were incubated for 24 h with ginsenoside M1 (10˜20 μg/ml), 50 μM cistaplatin (CDDP) or vehicle. Each group contains a final DMSO concentration of 0.1%. Thereafter, three assays were performed. […] The cells in sub-G1 phase increased after treatment with ginsenoside M1 and CDDP. (FIG. 3B). […] The data were expressed as mean±SD; n=3. ** and *** indicate a significant difference at the level of p<0.01 and p<0.001, respectively, compared to vehicle-control cells. (One-way ANOVA with Dunnett's multiple comparisons test).

[2] = system: human oral cancer cells OECM-1; assay: PI/Annexin V double staining assay by flow cytometry; details: 50 μM, 24 h
Experimental: as §1, §2

[3] = system: human oral cancer cells OECM-1; assay: Apoptotic DNA breaks, TUNEL assay by flow cytometry; details: 50 μM, 24 h
Experimental: as §1, §2

[4] = system: human oral cancer OECM-1 cells; assay: Viability of human oral cancer OECM-1 cells, Trypan blue exclusion; details: 5˜20 μg/ml, 24 h
Experimental: (§3) Human oral cancer cell line SAS cells (FIG. 1A) or OECM-1 cells (FIG. 1B) were incubated for 24 h with ginsenoside M1 (5˜20 μg/ml), ginsenoside Rh2 (5˜20 μg/ml) or vehicle (0.1% DMSO). The live cell numbers were counted by Trypan blue exclusion method. The data were expressed as mean±SD; n=3. *, ** and *** indicate a significant difference at the level of p<0.05, p<0.01 and p<0.001, respectively, compared to vehicle-control cells. (One-way ANOVA with Dunnett's multiple comparisons test).
(§4) Plate 5×10^5 human oral cancer cells SAS per 6-cm dish in 2 ml of culture medium and were grown overnight at 37° C. in a 5% CO2 incubator. The cells were incubated for 24 h with ginsenoside M1 (5˜20 μg/ml), ginsenoside Rh2 (5˜20 μg/ml) or vehicle. Each group contains a final DMSO concentration of 0.1%. Thereafter, the cell numbers were counted by Trypan blue exclusion method. […] The data were expressed as mean±SD; n=3. *, ** and *** indicate a significant difference at the level of p<0.05, p<0.01 and p<0.001, respectively, compared to vehicle-control cells. (One-way ANOVA with Dunnett's multiple comparisons test).

[5] = system: normal human gingival epithelioid cell line SG; assay: Toxicity to normal human gingival epithelioid SG cells, Trypan blue exclusion; details: 20 μg/ml, 24 h
Experimental: as §3, with “normal human gingival epithelioid” for “oral cancer”, “SG” for “SAS”, “cells” for “cells (FIG. 1A) or OECM-1 cells (FIG. 1B)”, “n=3.” for “n=3. *,”, “of” for “of p<0.05,”
as §4, with “5×10^5 normal” for “5×10^5”, “gingival epithelioid cell line SG” for “oral cancer cells SAS”, “n=3.” for “n=3. *,”, “of” for “of p<0.05,”

[6] = system: human oral cancer cells SAS; assay: Viability of human oral cancer SAS cells, Trypan blue exclusion; details: 5˜20 μg/ml, 24 h
Experimental: as §3, §4

N.N.[Cl][Pt][Cl] [CDDP, cistaplatin, reference compound]
cells in sub-G1 phase [1]: increased
cells in G1 phase ([1]; vs control cells): increased
percentage of cells in S and G2/M phase ([1]; vs control cells): decreasing
percentage of OECM-1 cells with PI/Annexin V double positive staining [2]: significantly increased
apoptotic DNA breaks in OECM-1 cells [3]: significantly induced

CC(C)=CCC[C@](C)(O)[C@H]1CC[C@]2(C)[C@@H]1[C@H](O)C[C@@H]1[C@@]3(C)CC[C@H](O[C@@H]4O[C@H](CO)[C@@H](O)[C@H](O)[C@H]4O)C(C)(C)[C@@H]3CC[C@]12C [ginsenoside Rh2, reference compound]
cell numbers of human oral cancer OECM-1 cells [4]: dose-dependently inhibited
toxicity to SG cells [5]: completely killed the SG cells
cell numbers of human oral cancer SAS cells [6]: dose-dependently inhibited
